From patent publication US10479794B2, “Cyclic ether derivatives of pyrazolo[1,5-a]pyrimidine-3-carboxyamide” (Boehringer Ingelheim International GmbH, priority 2015, dated 2019)

Tested on: human MDR1 P-gp
Assay: Assessment of efflux in MDCK cells transfected with the human MDR1 gene (MDCK assay)
Assay type: in vitro ADME, canine
Settings: dog; for efflux ratio at 2 h: MDCK-MDR1, pH 7.4, MDCK-MDR1, Papp (b-a) divided by Papp (a-b); for Papp A→B at 2 h: MDCK-MDR1, pH 7.4, MDCK-MDR1 monolayers, apical-to-basal, pH 7.4, 37° C.
Method: Assessment of Efflux in Madin-Darby Canine Kidney Cells Transfected with the Human MDR1 Gene (MDCK Assay)
Apparent permeability coefficients (PE) of the compounds across the MDCK-MDR1 cell monolayers are measured (pH 7.4, 37° C.) in apical-to-basal (AB) and basal-to-apical (BA) transport direction. AB permeability (PEAB) represents drug absorption from the blood into the brain and BA permeability (PEBA) drug efflux from the brain back into the blood via both passive permeability as well as active transport mechanisms mediated by efflux and uptake transporters that are expressed on the MDCK-MDR1 cells, predominantly by the overexpressed human MDR1 P-gp. The compounds are assigned to permeability/absorption classes by comparison of the AB permeabilities with the AB permeabilities of reference compounds with known in vitro permeability and oral absorption in the human. Identical or similar permeabilities in both transport directions indicate passive permeation, vectorial permeability points to additional active transport mechanisms. Higher PEBA than PEAB indicates the involvement of active efflux mediated by MDR1 P-gp. Active transport is concentration-dependently saturable.
MDCK-MDR1 cells (1-2×10e5 cells/1 cm2 area) are seeded on filter inserts (Costar transwell polycarbonate or PET filters, 0.4 μm pore size) and cultured (DMEM) for 7 days. Subsequently, the MDR1 expression is boosted by culturing the cells with 5 mM sodium butyrate in full medium for 2 days. Compounds are dissolved in appropriate solvent (like DMSO, 1-20 mM stock solutions). […] The transport solution (TL) is applied to the apical or basolateral donor side for measuring A-B or B-A permeability (3 filter replicates), respectively. The receiver side contains the same buffer as the donor side. Samples are collected at the start and end of experiment from the donor and at various time intervals for up to 2 hours also from the receiver side for concentration measurement by HPLC-MS/MS or scintillation counting. Sampled receiver volumes are replaced with fresh receiver solution. Efflux ratio is calculated dividing the Papp (b-a) values by the Papp (a-b) values.

Row | SMILES | efflux ratio at 2 h | Papp A→B at 2 h [×10⁻⁶ cm/s]
1 | O=C(NC1(c2ccc(C(F)(F)F)cc2)CCOC1)c1cnn2cc(C3CC3)cnc12 (racemic) [Example 37] | 0.5 | 86
2 | Cc1cnc2c(C(=O)NC3(c4ccc(C(F)(F)F)cc4F)CCOCC3O)cnn2c1 (racemic) [Example 46] | – | 60
3 | Cc1nn2cc(C3CC3)cnc2c1C(=O)NC1(c2ccc(C(F)(F)F)nc2)CCOCC1O (racemic) [Example 51] | – | 11
4 | CC1(O)COCCC1(NC(=O)c1cnn2cc(C3CC3)cnc12)c1ccc(C(F)(F)F)cc1F (racemic) [Example 53] | – | 15
5 | O=C(NC1(c2ccc(C(F)(F)F)cc2F)COCC1O)c1cnn2cc(C3CC3)cnc12 (single isomer, unassigned) [Example 69] | 1.3 | 25
6 | Cc1cnc2c(C(=O)NC3(c4ccc(C(F)(F)F)cc4F)CCOCC3O)cnn2c1 (single isomer, unassigned) [Example 81a] | – | 60
7 | O=C(NC1(c2ccc(C(F)(F)F)cc2F)CCOCC1O)c1cnn2cc(C3CC3)cnc12 (single isomer, unassigned) [Example 82a] | 1 | 59
8 | Cc1cnc2c(C(=O)NC3(c4ccc(C(F)(F)F)cc4F)CCOCC3(C)O)cnn2c1 (single isomer, unassigned) [Example 83a] | – | 34
9 | Cc1cnc2c(C(=O)NC3(c4ccc(C(F)(F)F)cc4F)CCOCC3)cnn2c1 [Example 2] | 0.6 | 84
10 | O=C(NC1(c2ccc(C(F)(F)F)cc2F)CCOCC1)c1cnn2cc(F)cnc12 [Example 3] | 0.7 | 97
11 | Cc1nn2cc(C3CC3)cnc2c1C(=O)NC1(c2ncc(C(F)(F)F)cc2F)CCOCC1 [Example 17] | 0.6 | 85
12 | Cc1nn2cc(C3CC3)cnc2c1C(=O)NC1(c2ccc(C(F)(F)F)cn2)CCOCC1 [Example 21] | 0.6 | 94
13 | Cc1nn2cc(C3CC3)cnc2c1C(=O)NC1(c2ccc(C(F)(F)F)nc2)CCOCC1 [Example 25] | 0.8 | 100
